# US20060069132A1, “Azolecarboxamide herbicides” (priority 2004, published 2006)
# Assays:
# [1] = test system: Surinam grass; assay: Test C pre-/postemergence herbicide test; format: in vivo, Urochloa decumbens; details: preemergence
# Outline: (§1)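 Pre/post spray; non-phytotoxic solvent + surfactant. Post-timing 1–4 leaves, 2–18 cm. Read-out: visual % control vs untreated, day 12–14, greenhouse.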
# [2] = test system: corn; assay: Test C pre-/postemergence herbicide test; format: in vivo, Zea mays; details: preemergence
# Outline: as §1
# [3] = test system: woolly cupgrass; assay: Test C pre-/postemergence herbicide test; format: in vivo, Eriochloa villosa; details: preemergence
# Outline: as §1
# [4] = test system: giant foxtail; assay: Test C pre-/postemergence herbicide test; format: in vivo, Setaria faberi; details: preemergence
# Outline: as §1
# [5] = test system: lambsquarters; assay: Test C pre-/postemergence herbicide test; format: in vivo, Chenopodium album; details: preemergence
# Outline: as §1
# [6] = test system: morningglory; assay: Test C pre-/postemergence herbicide test; format: in vivo, Ipomoea coccinea; parameters: key to Plant response rating, Morningglory: 0 = no effect, 100 = complete control; details: preemergence
# Outline: as §1
# [7] = test system: yellow nutsedge; assay: Test C pre-/postemergence herbicide test; format: in vivo, Cyperus esculentus; details: preemergence
# Outline: as §1
# [8] = test system: common (oilseed) sunflower; assay: Test C pre-/postemergence herbicide test; format: in vivo, Helianthus annuus; details: preemergence
# Outline: as §1
# [9] = test system: rice; assay: Test C flooded paddy test; format: in vivo, Oryza sativa; details: for Plant response rating, Rice: 500 g ai/ha, visual rating after 12 to 14 days
# Outline: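 Injury scored visually against controls on a 0 (no effect) to 100 (complete control) scale, 12 to 14 days after treatment in greenhouse. Flooded paddy plants treated at 2-leaf stage; postemergence plants at 1- to 4-leaf stage, 2 to 18 cm tall.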
# [10] = test system: smallflower umbrella sedge; assay: Test C flooded paddy test; format: in vivo, Cyperus difformis; details: for Plant response rating, Sedge, Umbrella: 500 g ai/ha, visual rating after 12 to 14 days
# [11] = test system: ducksalad; assay: Test C flooded paddy test; format: in vivo, Heteranthera limosa; details: for Plant response rating, Ducksalad: 500 g ai/ha, visual rating after 12 to 14 days
# [12] = 500 g ai/ha, scale 0 to 100 (0 no effect, 100 complete control), visual, 12 to 14 days
# [13] = 125 g ai/ha, scale 0 (no effect) to 100 (complete control), visual, 12 to 14 days
# [14] = 125 g ai/ha, scale 0 to 100 (0 no effect, 100 complete control)
# [15] = 250 g ai/ha, scale of 0 to 100, 0 is no effect, 100 is complete control
# [16] = scale 0 to 100 (0 no effect, 100 complete control)
smiles,measurement,setting,value
CCn1nc(C(C)(C)C)cc1C(=S)Nc1cc(C(=S)N(C)C)ccc1F [Compound 305],"Plant response rating, Surinam Grass","[1]; 62 g ai/ha, scale 0 to 100",50
same,"Plant response rating, Surinam Grass","[1]; 250 g ai/ha, scale 0-100",60
same,"Plant response rating, Surinam Grass",[1]; [12],60
same,"Plant response rating, Corn","[2]; 62 g ai/ha, scale 0 to 100",0
same,"Plant response rating, Corn",[2]; [13],40
same,"Plant response rating, Corn","[2]; 250 g ai/ha, scale 0-100",45
same,"Plant response rating, Corn",[2]; [12],45
same,"Plant response rating, Cupgrass, Woolly","[3]; 62 g ai/ha, scale 0 to 100",20
same,"Plant response rating, Cupgrass, Woolly",[3]; [13],60
same,"Plant response rating, Cupgrass, Woolly","[3]; 250 g ai/ha, scale 0-100",60
same,"Plant response rating, Cupgrass, Woolly",[3]; [12],70
same,"Plant response rating, Foxtail, Giant","[4]; 62 g ai/ha, scale 0 to 100",35
same,"Plant response rating, Foxtail, Giant",[4]; [13],85
same,"Plant response rating, Foxtail, Giant","[4]; 250 g ai/ha, scale 0-100",100
same,"Plant response rating, Foxtail, Giant",[4]; [12],100
same,"Plant response rating, Lambsquarters","[5]; 62 g ai/ha, scale 0 to 100",100
same,"Plant response rating, Lambsquarters",[5]; [13],100
same,"Plant response rating, Lambsquarters","[5]; 250 g ai/ha, scale 0-100",100
same,"Plant response rating, Lambsquarters",[5]; [12],100
same,"Plant response rating, Morningglory","[6]; 62 g ai/ha, scale 0 to 100",0
same,"Plant response rating, Morningglory",[6]; [13],0
same,"Plant response rating, Morningglory","[6]; 250 g ai/ha, scale 0-100",5
same,"Plant response rating, Morningglory",[6]; [12],10
same,"Plant response rating, Nutsedge, Yellow","[7]; 62 g ai/ha, scale 0 to 100",10
same,"Plant response rating, Nutsedge, Yellow",[7]; [13],20
same,"Plant response rating, Nutsedge, Yellow","[7]; 250 g ai/ha, scale 0-100",25
same,"Plant response rating, Nutsedge, Yellow",[7]; [12],50
same,"Plant response rating, Sunflower","[8]; 62 g ai/ha, scale 0 to 100",0
same,"Plant response rating, Sunflower","[8]; 250 g ai/ha, scale 0-100",0
same,"Plant response rating, Sunflower",[8]; [12],50
same,Rice plant response rating,"[9]; 62 g ai/ha, scale 0 to 100",75
same,Rice plant response rating,[9]; [14],80
same,Rice plant response rating,[9]; [15],85
same,"Plant response rating, Rice",[9]; [16],85
same,"Sedge, Umbrella plant response rating","[10]; 62 g ai/ha, scale 0 to 100",85
same,"Sedge, Umbrella plant response rating",[10]; [14],90
same,"Sedge, Umbrella plant response rating",[10]; [15],90
same,"Plant response rating, Sedge, Umbrella",[10]; [16],90
same,Ducksalad plant response rating,"[11]; 62 g ai/ha, scale 0 to 100",0
same,Ducksalad plant response rating,[11]; [14],0
same,Ducksalad plant response rating,[11]; [15],0
same,"Plant response rating, Ducksalad",[11]; [16],0
CCn1nc(C(C)(C)C)cc1C(=O)Nc1cc(C(=S)N(C)C)ccn1 [Compound 334],"Plant response rating, Surinam Grass","[1]; 62 g ai/ha, scale 0 to 100",55
same,"Plant response rating, Surinam Grass","[1]; 250 g ai/ha, scale 0-100",95
same,"Plant response rating, Corn","[2]; 62 g ai/ha, scale 0 to 100",0
same,"Plant response rating, Corn",[2]; [13],20
same,"Plant response rating, Corn","[2]; 250 g ai/ha, scale 0-100",50
same,"Plant response rating, Cupgrass, Woolly","[3]; 62 g ai/ha, scale 0 to 100",25
same,"Plant response rating, Cupgrass, Woolly",[3]; [13],60
same,"Plant response rating, Cupgrass, Woolly","[3]; 250 g ai/ha, scale 0-100",85
same,"Plant response rating, Foxtail, Giant","[4]; 62 g ai/ha, scale 0 to 100",60
same,"Plant response rating, Foxtail, Giant",[4]; [13],80
same,"Plant response rating, Foxtail, Giant","[4]; 250 g ai/ha, scale 0-100",100
same,"Plant response rating, Lambsquarters","[5]; 62 g ai/ha, scale 0 to 100",100
same,"Plant response rating, Lambsquarters",[5]; [13],100
same,"Plant response rating, Lambsquarters","[5]; 250 g ai/ha, scale 0-100",100
same,"Plant response rating, Morningglory","[6]; 62 g ai/ha, scale 0 to 100",5
same,"Plant response rating, Morningglory",[6]; [13],20
same,"Plant response rating, Morningglory","[6]; 250 g ai/ha, scale 0-100",40
same,"Plant response rating, Nutsedge, Yellow","[7]; 31 g ai/ha, scale 0 to 100, last section of Table C",5
same,"Plant response rating, Nutsedge, Yellow","[7]; 62 g ai/ha, scale 0 to 100",10
same,"Plant response rating, Nutsedge, Yellow",[7]; [13],40
same,"Plant response rating, Nutsedge, Yellow","[7]; 250 g ai/ha, scale 0-100",55
same,"Plant response rating, Sunflower","[8]; 62 g ai/ha, scale 0 to 100",5
same,"Plant response rating, Sunflower","[8]; 250 g ai/ha, scale 0-100",55
same,Rice plant response rating,"[9]; 62 g ai/ha, scale 0 to 100",70
same,Rice plant response rating,[9]; [14],75
same,Rice plant response rating,[9]; [15],80
same,"Plant response rating, Rice",[9]; [16],85
same,"Sedge, Umbrella plant response rating","[10]; 62 g ai/ha, scale 0 to 100",80
same,"Sedge, Umbrella plant response rating",[10]; [14],90
same,"Sedge, Umbrella plant response rating",[10]; [15],90
same,"Plant response rating, Sedge, Umbrella",[10]; [16],95
same,Ducksalad plant response rating,"[11]; 62 g ai/ha, scale 0 to 100",75
same,Ducksalad plant response rating,[11]; [14],85
same,Ducksalad plant response rating,[11]; [15],85
same,"Plant response rating, Ducksalad",[11]; [16],90
